Structures can show the parent of a compound that is named as a salt.

Broadly, the IC50 is the midpoint of a concentration-inhibition curve.

In this experiment the target is T1, cGMP-PDE prepared from the swine aeorta (Sus scrofa, UniProt A0A287B475).
T1 construct: The swine aeorta was sliced; from tissue; host or cells: swine aorta, 100000×g supernatant, DEAE-Toyopearl 650S fraction
Description: Enzyme inhibiting action with the use of cGMP-PDE prepared from the swine aorta. The class given is biochemical. To be noted: CaM-independent cGMP-PDE, 1 mM EGTA, 1 μM cGMP substrate, DMSO 4% or below. An outline of the steps:
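CaM-independent cGMP-PDE isolated from pig aorta supernatant by DEAE anion-exchange chromatography. Activity measured with 1 μM cGMP substrate in presence of 1 mM EGTA, following the Thompson method. Compounds added from DMSO, final DMSO 4% or below.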
`CNC(=O)N(C(=O)NC)c1nc(NCc2ccc3c(c2)OCO3)c2cc(Cl)ccc2n1` [Example 203, 2-Bis(methylcarbamoyl)amino-4-(3,4-methylenedioxybenzyl)amino-6-chloroquinazoline]: the IC50 came to 28 nM.

Compound `CCCCNC(=O)Nc1nc(NCc2ccc3c(c2)OCO3)c2cc(Cl)ccc2n1` [Example 204, 2-(n-Butylcarbamoyl)amino-4-(3,4-methylenedioxybenzyl)amino-6-chloroquinazoline] displayed an IC50 of 4 nM. With `CCOC(=O)C1CCN(c2nc(NCc3ccc4c(c3)OCO4)c3cc(Cl)ccc3n2)CC1` [Example 206, 2-(4-Ethoxycarbonylpiperidino)-4-(3,4-methylenedioxybenzyl)amino-6-chloroquinazoline hydrochloride] the figure was 29 nM; with `CCOC(=O)C1CCN(c2nc(NCc3ccc(OC)c(Cl)c3)c3cc(C#N)ccc3n2)CC1` [Example 208, 2-(4-Ethoxycarbonylpiperidino)-4-(3-chloro-4-methoxybenzyl)amino-6-cyanoquinazoline], 0.19 nM; with `CCOC(=O)CNc1nc(NCc2ccc3c(c2)OCO3)c2cc(Cl)ccc2n1` [Example 213, 2-(Ethoxycarbonylmethyl)amino-4-(3,4-methylenendioxybenzyl)amino-6-chloroquinazoline], 23 nM.

On to `CCOC(=O)CCCNc1nc(NCc2ccc3c(c2)OCO3)c2cc(Cl)ccc2n1` [Example 214, 2-(3-Ethoxycarbonylpropyl)amino-4-(3,4-methylenedioxybenzyl)amino-6-chloroquinazoline], for which the IC50 turned out to be 9 nM. The same measure for `CCOC(=O)CCCCCNc1nc(NCc2ccc3c(c2)OCO3)c2cc(Cl)ccc2n1` [Example 216, 2-(5-Ethoxycarbonylpentyl)amino-4-(3,4-methylenedioxybenzyl)amino-6-chloroquinazoline]: 17 nM. The same measure for `CCOC(=O)CCCN(C)c1nc(NCc2ccc(OC)c(Cl)c2)c2cc(C#N)ccc2n1` [Example 220]: 0.24 nM; for `O=C(O)C1CCN(c2nc(NCc3ccc4c(c3)OCO4)c3cc(Cl)ccc3n2)CC1` [Example 222, 2-(4-Carboxypiperidino)-4-(3,4-methylenedioxybenzyl)amino-6-chloroquinazoline]: 6.5 nM. With `N#Cc1ccc2nc(N3CCC(C(=O)O)CC3)nc(NCc3ccc4c(c3)OCO4)c2c1` [Example 227, 2-(4-Carboxypiperidino)-4-(3,4-methylenedioxybenzyl)amino-6-cyanoquinazoline] the figure was 2.6 nM; with `COc1ccc(CNc2nc(N3CCC(C(=O)O)CC3)nc3ccc(C#N)cc23)cc1Cl` [Example 228, 2-(4-Carboxypiperidino)-4-(3-chloro-4-methoxybenzyl)amino-6-cyanoquinazoline], 0.52 nM. In turn, `CN(CCCC(=O)O)c1nc(NCc2ccc3c(c2)OCO3)c2cc(C#N)ccc2n1` [Example 230, 2-[N-(3-Carboxypropyl)-N-methylamino]-4-(3,4-methylenedioxybenzyl)amino-6-cyanoquinazoline] had an IC50 of 5.8 nM. The same measure for `COc1cc2c(NCc3ccc4c(c3)OCO4)nc(N3CCC(C(=O)O)CC3)nc2c(OC)c1OC` [Example 231, 2-(4-Carboxypiperidino)-4-(3,4-methylenedioxybenzyl)amino-6,7,8-trimethoxyquinazoline]: 410 nM; for `COc1ccc(CNc2nc(N3CCC(C(=O)O)CC3)nc3c(OC)c(OC)c(OC)cc23)cc1Cl` [Example 232, 2-(4-Carboxypiperidino)-4-(3-chloro-4-methoxybenzyl)amino-6,7,8-trimethoxyquinazoline]: 44 nM; for `COc1ccc2nc(N3CCC(C(=O)O)CC3)nc(NCc3ccc4c(c3)OCO4)c2c1` [Example 233, 2-(4-Carboxypiperidino)-4-(3,4-methylenedioxybenzyl)amino-6-methoxyquinazoline]: 13 nM. The same measure for `COc1ccc2nc(N3CCC(C(=O)O)CC3)nc(NCc3ccc(OC)c(Cl)c3)c2c1` [Example 234, 2-(4-Carboxypiperidino)-4-(3-chloro-4-mehtoxybenzyl)amino-6-methoxyquinazoline]: 6 nM; for `COc1ccc(CNc2nc(N3CCC(C(=O)O)CC3)nc3ccc(Cl)cc23)cc1Cl` [Example 235, 2-(4-Carboxypiperidino)-4-(3-chloro-4-methoxybenzyl)amino-6-chloroquinazoline]: 2 nM; for `O=C(O)C1CCN(c2nc(NCc3ccc4[nH]cnc4c3)c3cc(Cl)ccc3n2)CC1` [Example 236, 2-(4-Carboxypiperidino)-4-(benzimidazol-5-yl)methylamino-6-chloroquinazoline]: 6 nM. With `O=C(O)CNc1nc(NCc2ccc3c(c2)OCO3)c2cc(Cl)ccc2n1` [Example 237, 2-(Carboxymethyl)amino-4-(3,4-methylenedioxybenzyl)amino-6-chloroquinazoline] the figure was 14 nM. For the compound `O=C(O)CCCNc1nc(NCc2ccc3c(c2)OCO3)c2cc(Cl)ccc2n1` [Example 238, 2-(3-Carboxypropyl)amino-4-(3,4-methylenedioxybenzyl)amino-6-chloroquinazoline], the IC50 amounted to 5 nM. `O=C(O)CCCCCNc1nc(NCc2ccc3c(c2)OCO3)c2cc(Cl)ccc2n1` [Example 239, 2-(5-Carboxypentyl)amino-4-(3,4-methylenendioxybenzyl)amino-6-chloroquinazoline] displayed an IC50 of 8 nM. With `CN(CCCC(=O)O)c1nc(NCc2ccc3c(c2)OCO3)c2cc(Cl)ccc2n1` [Example 240, 2-[N-(3-Carboxypropyl)-N-methylamino]-4-(3,4-methylenedioxybenzyl)amino-6-chloroquinazoline] the figure was 4 nM; with `CN(CC(=O)O)c1nc(NCc2ccc3c(c2)OCO3)c2cc(C#N)ccc2n1` [Example 241, 2-(N-Carboxymethyl-N-methylamino)-4-(3,4-methylenedioxybenzyl)amino-6-cyanoquinazoline], 180 nM. The same measure for `COc1ccc(CNc2nc(N(C)CCCC(=O)O)nc3ccc(C#N)cc23)cc1Cl` [Example 243, 2-[N-(3-Carboxypropyl)-N-methylamino]-4-(3-chloro-4-methoxybenzyl)amino-6-cyanoquinazoline]: 0.15 nM. With `N#Cc1ccc2nc(N3CCC(C(=O)O)CC3)nc(NCc3ccc4nc[nH]c4c3)c2c1` [Example 244, 2-(4-Carboxypiperidino)-4-(benzimidazol-5-yl)methylamino-6-cyanoquinazoline] the figure was 9 nM; with `NC(=O)c1ccc2nc(N3CCC(C(=O)O)CC3)nc(NCc3ccc4c(c3)OCO4)c2c1` [Example 245, 2-(4-Carboxypiperidino)-4-(3,4-methylenedioxybenzyl)amino-6-carbamoylquinazoline], 100 nM; with `O=C(O)C1CCN(c2cc(NCc3ccc4c(c3)OCO4)c3cc(Cl)ccc3n2)CC1` [Example 255, 2-(4-Carboxypiperidino)-4-(3,4-methylenedioxybenzyl)amino-6chloroquinoline], 32 nM. The compound `COc1ccc(CNc2cc(N3CCC(C(=O)O)CC3)nc3ccc(Cl)cc23)cc1Cl` [Example 256, 2-(4-Carboxypiperidino)-4-(3-chloro-4-methoxybenzyl)amino-6-chloroquinoline] returned an IC50 of 2.1 nM.

These data come from US5801180A, “Quinazoline derivatives” (priority 1991, dated 1998).
